Assay results reported in PubChem BioAssay AID1053146 (Broad Institute, 2014).

System: HepG2 BODIPY-LDL uptake, high-content imaging
Experiment: increase of fluorescent LDL uptake in hepatoma cells – imaging, BODIPY-LDL, cherry-pick, dose response (AID 1053146)

| EC50 [nM] | Structure (SMILES) |
| --- | --- |
| 4600 | CN1C(=O)c2cc(NC(=O)c3ccc(C(F)(F)F)cc3)ccc2OC[C@@H]2O[C@@H](CC(=O)NC3Cc4ccccc4C3)CC[C@@H]21 |
| 1100 | CN1C(=O)c2cc(NC(=O)c3ccc(C(F)(F)F)cc3)ccc2OC[C@@H]2O[C@H](CC(=O)NC3Cc4ccccc4C3)CC[C@@H]21 |
